Laboratory results: patent US6835755B1, “Naphthoquinone derivatives and their use in the treatment and control of tuberculosis” (priority 1999, dated 2004)
In brackets after ≈: the same amount, converted by molar mass.

Tested on: Mycobacterium tuberculosis sensitive strain (H37Rv)
Experiment: microbe, parasite or virus in culture
Format: cell-based
Settings: for ΔGI values of plant extracts: at MIC, mean ± s.d.

Row | SMILES | ΔGI values of plant extracts (H37Rv sensitive strain ATCC27294) | MIC (Minimal inhibitory concentration) (H37Rv sensitive strain ATCC27294, radiometric method) [µg/mL] | ΔGI values of plant extracts (H37 sensitive strain) | MIC (Mycobacterium tuberculosis, H37RV, H37 sensitive strain, radiometric method) [µg/mL]
1 | Cc1cc(O)c2c(c1)C(=O)C=CC2=O [7-methyljuglone, 5-hydroxy-7-methyl-1,4-naphtoquinone] | 0 ± 1 | 50 (≈ 266 µM) | – | –
2 | Cc1cc(O)c2c(c1)C(=O)C(c1c(C)cc3c(c1O)C(=O)C=CC3=O)=CC2=O [diospyrin, 5,5′ dihydroxy 7,7′ binaphthoquinone] | – | – | −1 ± 1.41 | 100 (≈ 267 µM)
